Patent US7285396B1, “Aβ-heme peroxidase” (Children's Hospital & Research Center at Oakland, priority 2006, dated 2007)

Assays:
[1] = biological target: T1, Aβ-heme peroxidase (Homo sapiens, UniProt P05067); test: Inhibition of Aβ-heme peroxidase activity (TMB assay or HPLC); inhibitor screen; type: biochemical; conditions: for identified as inhibitor of Aβ-heme peroxidase activity in library screen: TMB assay; for peroxidase activity of Aβ-heme: TMB assay or HPLC
T1 construct: Amyloid-β (Aβ) peptide (American Peptide, Sunnyvale, Calif.) is dissolved in distilled deionized water; purchased American Peptide, Sunnyvale, Calif
T1 sequence (P05067 672-711 limits assumed): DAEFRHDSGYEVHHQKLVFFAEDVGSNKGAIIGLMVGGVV

[2] = test system: Tg2576 APPSw transgenic mouse; conditions: chronic dose of curcumin, APPSw mice; Lim 2001; cited from earlier work
[3] = test system: Tg2576 APPSw transgenic mouse; conditions: curcumin-treated Tg2576 APPSw mouse; Lim et al 2001; cited from earlier work
[4] = test system: SHSY5Y cells; type: cell-based, human
Protocol: (§1) The effect of Aβ on heme synthesis was used to test the biological effect of the Aβ and heme interaction. We expected an increase in heme synthesis due to depletion of regulatory heme if the binding between heme and Aβ occurs in the cell. […] A 40% increase in heme synthesis was seen after 2 h incubation with 0.1 μM Aβ. A 4-fold and 13-fold increase in heme synthesis was seen after 1 h of incubation with 1 and 10 μM Aβ, respectively. A 2.5-fold and 18-fold increase in heme synthesis was seen after 2 h of incubation with 1 and 10 μM Aβ, respectively. An increase in the uptake of cofactors of heme biosynthesis is necessary to support heme synthesis. […] A 55% increase in iron was seen after 2 h of incubation with 0.1 μM Aβ. […] A 2-fold and 8-fold increase in iron uptake was seen after 2 h of incubation with 1 and 10 μM Aβ, respectively. The exposure of SHSY5Y cells to Aβ was not toxic as measured by trypan blue exclusion tests and compared with controls.

[5] = test system: human neuroblastoma (SHSY5Y) cells; test: Effect of Aβ on intracellular iron / iron uptake in SHSY5Y cells; type: cell-based
[6] = test system: human neuroblastoma (SHSY5Y) cells; test: Effect of Aβ on heme synthesis in SHSY5Y cells; type: cell-based
Protocol: as §1

[7] = biological target: Aβ(1-40) (Homo sapiens, UniProt P05067); conditions: reference 13; cited from earlier work
Aβ(1-40), sequence (P05067 672-711 limits assumed): as above

[8] = biological target: Aβ(1-42) (Homo sapiens, UniProt P05067); conditions: reference 13; cited from earlier work
Aβ(1-42), sequence (P05067 672-713 limits assumed): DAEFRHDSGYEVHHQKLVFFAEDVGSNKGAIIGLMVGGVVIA

## O=[N+]([O-])CCCNO [N-(3-nitropropyl)hydroxylamine]
[1]
  identified as inhibitor of Aβ-heme peroxidase activity in library screen: inhibitors

## OCCCCNO [N-(4-hydroxybutyl)hydroxylamine]
[1]
  identified as inhibitor of Aβ-heme peroxidase activity in library screen: inhibitors

## ONCc1ccccc1 [N-benzylhydroxylamine (NBHA), N-benzylhydroxylamine]
[1]; 100 μM N-benzylhydroxylamine
  peroxidase activity of Aβ-heme: significantly inhibited

## coproporphyrin I
[1]
  identified as inhibitor of Aβ-heme peroxidase activity in library screen: inhibitors

## CN(C)c1ccc2nc3ccc(N)cc3[s+]c2c1.[Cl-] [azure A]
[1]
  identified as inhibitor of Aβ-heme peroxidase activity in library screen: inhibitors

## ONC1CCCCC1 [N-cyclohexylhydroxylamine]
[1]
  identified as inhibitor of Aβ-heme peroxidase activity in library screen: inhibitors

## CC(=O)NO [N-(acetyl)hydroxylamine]
[1]
  identified as inhibitor of Aβ-heme peroxidase activity in library screen: inhibitors

## Cc1cc2nc3ccc(N(C)C)cc3[s+]c2cc1N.[Cl-] [toluidine blue]
[1]
  identified as inhibitor of Aβ-heme peroxidase activity in library screen: inhibitors

## azure B
[1]
  identified as inhibitor of Aβ-heme peroxidase activity in library screen: inhibitors

## COc1cc(/C=C/C(=O)CC(=O)/C=C/c2ccc(O)c(OC)c2)ccc1O [curcumin]
[2]
  insoluble Aβ: significantly reduces
  soluble Aβ: significantly reduces
[3]
  oxidative damage: reduced oxidative damage
[1]; 1 μM curcumin
  peroxidase activity of Aβ-heme: significantly inhibited

## Cc1cc(N(C)C)cc2[s+]c3cc(N(C)C)cc(C)c3nc12 [1-9-dimethyl methylene blue]
[1]
  identified as inhibitor of Aβ-heme peroxidase activity in library screen: inhibitors

## coproporphyrin III
[1]
  identified as inhibitor of Aβ-heme peroxidase activity in library screen: inhibitors

## CNc1ccc2nc3ccc(N)cc3[s+]c2c1.[Cl-] [azure C]
[1]
  identified as inhibitor of Aβ-heme peroxidase activity in library screen: inhibitors

## uroporphyrin III
[1]
  identified as inhibitor of Aβ-heme peroxidase activity in library screen: inhibitors

## O=C(CNO)Cc1ccccc1 [N-(benzylcarbonyl)methylhydroxylamine]
[1]
  identified as inhibitor of Aβ-heme peroxidase activity in library screen: inhibitors

## Aβ: Amyloid-β (Aβ) peptide (American Peptide, Sunnyvale, Calif.)
[4]
  toxicity by trypan blue exclusion: not toxic
[5]; 0.1 μM Aβ, 2 h incubation
  increase in iron: 55%
[5]; 1 μM Aβ, 1 h incubation
  increase in iron uptake: 4 fold
[5]; 10 μM Aβ, 1 h incubation
  increase in iron uptake: 12.5 fold
[5]; 10 μM Aβ, 2 h incubation
  increase in iron uptake: 8 fold
[5]; Aβ 0.1, 1 and 10 μM
  intracellular iron: significantly increased
[6]; 0.1 μM Aβ, 2 h incubation
  increase in heme synthesis: 40%
[6]; 1 μM Aβ, 1 h incubation
  increase in heme synthesis: 4 fold
[6]; 1 μM Aβ, 2 h incubation
  increase in heme synthesis: 2.5 fold
[6]; 10 μM Aβ, 1 h incubation
  increase in heme synthesis: 13 fold
[6]; 10 μM Aβ, 2 h incubation
  increase in heme synthesis: 18 fold
[6]; Aβ 0.1, 1 and 10 μM
  synthesis of heme: significantly increased

## uroporphyrin I
[1]
  identified as inhibitor of Aβ-heme peroxidase activity in library screen: inhibitors

## CC(C)(C)NO [N-tert-butylhydroxylamine]
[1]
  identified as inhibitor of Aβ-heme peroxidase activity in library screen: inhibitors

## CCNc1cc2[s+]c3cc(NCC)c(C)cc3nc2cc1C.[Cl-] [new methylene blue]
[1]
  identified as inhibitor of Aβ-heme peroxidase activity in library screen: inhibitors

## O=C(O)CCNO [N-(2-carboxyethyl)hydroxylamine]
[1]
  identified as inhibitor of Aβ-heme peroxidase activity in library screen: inhibitors

## C=CC1=C(C)c2cc3[n-]c(cc4[n-]c(cc5nc(cc1n2)C(C)=C5C=C)c(C)c4CCC(=O)O)c(CCC(=O)O)c3C.[Fe+2] [heme]
[7]
  aggregation of Aβ(1-40): prevented aggregation
[8]
  aggregation of Aβ(1-42): prevented aggregation

## CC(C)NO [N-isopropylhydroxylamine]
[1]
  identified as inhibitor of Aβ-heme peroxidase activity in library screen: inhibitors
